{
  "source": "patent US20240165152A1",
  "about": "“COMPOSITIONS AND METHODS FOR ACTIVATING NK CELLS” (The Regents of the University of California, priority 2017, published 2024)",
  "key": {"OSCCs": {"tested_on": "OSCCs", "experiment": "Cell death of OSCCs after chemotherapeutic drugs", "format": "cell-based, human", "settings": "patient-derived differentiated oral tumor"}, "OSCSCs": {"tested_on": "OSCSCs", "experiment": "Cell death (PI staining) of OSCSCs differentiated with NK supernatants after chemotherapeutic drugs", "format": "cell-based, human", "description": "FIG. 67A-FIG. 67B show CDDP or Paclitaxel with and without NAC induce significant cell death in OSCSCs differentiated with NK-supernatants and not in poorly-differentiated tumors. Highly purified NK cells were treated with the combination of IL-2 (1000 U/mL) and anti-CD16 mAb ([…]) for 18 hours, after which the NK supernatants were added to OSCSCs in the presence of anti-TNF-a (1:100) and anti-IFN-g (1:100) for a period of 5 days. Thereafter, OSCSCs were detached and treated with/without Cisplatin for 18-24 hours. The viability of OSCSCs was then determined using PI staining and flow cytometric analysis. One of 3 representative experiments is shown in this figure (FIG. 67A). OSCSCs were treated with the supernatants from NK cells as described in FIG. 67A. Afterwards, tumors were detached and treated with/without NAC ([…]) for 24 hours, followed by treatment with Paclitaxel for 18-24 hours. OSCSCs viability was determined by PI staining and flow cytometric analysis. One of 3 representative experiments is shown in this figure (FIG. 67B).\nStaining was performed by labeling the cells with antibodies or propidium iodide, as described previously. The cells were washed twice with ice-cold PBS containing 1% BSA. Predetermined optimal concentrations of specific human monoclonal antibodies were added to 1×10^4 cells in 50 pl of cold-BSA and cells were incubated on ice for 30 min. Thereafter cells were washed in cold PBS-BSA and brought to 500 pl with PBS-BSA. For cell death assay 1×10^4 cells in 50 pl of cold-BSA were stained with 8 µg/ml propidium iodide and cells were incubated on ice for 10 min, and brought to 500 pl with PBS-BSA. Flow cytometry analysis was performed using Beckman 485 Coulter Epics XL cytometer (Brea, CA) and results were analyzed in FlowJo vX software (Ashland, OR).\nNK cells were treated with a combination of anti-CD16 monoclonal antibody (3 pg/mL) and IL-2 (1,000 U/mL) for 18 hours before supernatants were removed and used for differentiation experiments. The amounts of IFN-y produced by activated NK cells were measured with IFN-γ ELISA (Biolegend, CA, USA). […]"}},
  "data": [
    {"smiles": "[NH2][Pt]([NH2])([Cl])[Cl]", "note": "[CDDP, Cisplatin]", "values": [
      {"measurement": "cell death of OSCCs", "setting": "OSCCs", "result": "higher cell death"},
      {"measurement": "cell death of OSCSCs differentiated with NK supernatants", "setting": "OSCSCs", "result": "significant susceptibility"}
    ]},
    {"smiles": "CC(=O)O[C@H]1C(=O)[C@@]2(C)[C@H]([C@H](OC(=O)c3ccccc3)[C@]3(O)C[C@H](OC(=O)[C@H](O)[C@@H](NC(=O)c4ccccc4)c4ccccc4)C(C)=C1C3(C)C)[C@]1(OC(C)=O)CO[C@@H]1C[C@@H]2O", "note": "[paclitaxel]", "values": [
      {"measurement": "cell death of OSCSCs differentiated with NK supernatants", "setting": "OSCSCs", "result": "higher cell death"}
    ]},
    {"smiles": "CC(=O)N[C@@H](CS)C(=O)O", "note": "[NAC]", "values": [
      {"measurement": "cell death of OSCSCs differentiated with NK supernatants", "setting": "OSCSCs", "result": "significantly increased"}
    ]}
  ]
}
